Reference: US20220112479A1, “COMPOUNDS STABILIZING AMYLASES IN LIQUIDS” (BASF SE, priority 2018, published 2022)

What was measured:
Type in all cases: biochemical
Set-up in all cases: key: % of activity in reference formulation at time 0
Amy1=Stainzyme = assay: amylase storage stability in liquid formulation (pNP release from Ethyliden-blocked-pNPG7); conditions: storage at 37° C.
Protocol: (§1) The storage stability of amylase was assessed at 37° C. Base test formulations were manufactured by making base formulations I to V by mixing the components according to Table 1. Amylases used: Amy1=Stainzyme, Amy2=Amplify, Amy3=Stainzyme Plus L (12L) The respective component (a) or comparative compound was added, if applicable, to the respective base formulation in amounts as indicated in Table 1. The amount of amylase as provided in Table 1 refers to active protein. Water was added to accomplish the balance to 100. […] Amylase activity at certain points in time as indicated in Table 2 was measured quantitatively by the release of the chromophore para-nitrophenol (pNP) from the substrate ([…]-blocked-pNPG7, Roche Applied Science 10880078103). The alpha-amylase degrades the substrate into smaller molecules and α-glucosidase (Roche Applied Science 11626329103), which is present in excess compared to the amylase, process these smaller products until pNP is released; the release of pNP, measured via an increase of absorption at 405 nm, is directly proportional to the amylase activity of the sample. Amylase standard: […] 120 L (Sigma 3403). […] The amylolytic activity values provided were calculated referring to the value determined in the reference formulation at the time 0. The nomenclature of formulations is as follows: the Roman number before the full stop characterizes the base formulation, the Arabian number the type of compound (A.# compound according to invention (component (a)); B.# comparative compound).

Amy2=Amplify = assay: as above; conditions: storage at 37° C.
Protocol: as §1

Amylase = assay: amylase storage stability in liquid laundry formulation (pNP release from Ethyliden-blocked-pNPG7); conditions: 2.5 wt % component (a), storage at 37° C.
Protocol: The storage stability of amylase was assessed at 37° C.
Base test formulations were manufactured by making base formulations VI to IX by mixing the components according to Table 4.
Amylase activity at certain points in time as indicated in Table 5 was measured quantitatively by the release of the chromophore para-nitrophenol (pNP) from the substrate (Ethyliden-blocked-pNPG7, Roche Applied Science 10880078103). The alpha-amylase degrades the substrate into smaller molecules and α-glucosidase (Roche Applied Science 11626329103), which is present in excess compared to the amylase, process these smaller products until pNP is released; the release of pNP, measured via an increase of absorption at 405 nm, is directly proportional to the amylase activity of the sample. Amylase standard: Termamyl 120 L (Sigma 3403).
The amylolytic activity values provided were calculated referring to the value determined in the reference formulation at the time 0.
The nomenclature of formulations is as follows: the Roman number before the full stop characterizes the base formulation, the Arabian number the type of compound (A.# compound according to invention (component (a)); B.# comparative compound).

Structure (SMILES): CCOC(=O)CC(O)(CC(=O)OCC)C(=O)OCC [A.1, Triethylcitrate]
- amylase activity, referring to reference formulation at time 0 (Amy1=Stainzyme; base formulation I., 1.5 wt % component (a), 3 d): 98
- amylase activity, referring to reference formulation at time 0 (Amy1=Stainzyme; base formulation I., 1.5 wt % component (a), 7 d): 93
- amylase activity, referring to reference formulation at time 0 (Amy1=Stainzyme; base formulation I., 1.5 wt % component (a), 14 d): 88
- amylase activity, referring to reference formulation at time 0 (Amy1=Stainzyme; base formulation I., 1.5 wt % component (a), 21 d): 80
- amylase activity, referring to reference formulation at time 0 (Amy1=Stainzyme; base formulation I., 1.5 wt % component (a), 28 d): 74
- amylase activity, referring to reference formulation at time 0 (Amy1=Stainzyme; base formulation I., 1.5 wt % component (a), 42 d): 61
- amylase activity, referring to reference formulation at time 0 (Amy1=Stainzyme; base formulation I., 1.5 wt % component (a), T0): 100
- amylase activity, referring to reference formulation at time 0 (Amy1=Stainzyme; base formulation IV., 2.0 wt % component (a), 3 d): 96
- amylase activity, referring to reference formulation at time 0 (Amy1=Stainzyme; base formulation IV., 2.0 wt % component (a), 7 d): 92
- amylase activity, referring to reference formulation at time 0 (Amy1=Stainzyme; base formulation IV., 2.0 wt % component (a), 14 d): 88
- amylase activity, referring to reference formulation at time 0 (Amy1=Stainzyme; base formulation IV., 2.0 wt % component (a), 21 d): 83
- amylase activity, referring to reference formulation at time 0 (Amy1=Stainzyme; base formulation IV., 2.0 wt % component (a), 28 d): 73
- amylase activity, referring to reference formulation at time 0 (Amy1=Stainzyme; base formulation IV., 2.0 wt % component (a), 42 d): 61
- amylase activity, referring to reference formulation at time 0 (Amy1=Stainzyme; base formulation IV., 2.0 wt % component (a), T0): 98
- amylase activity, referring to reference formulation at time 0 (Amy2=Amplify; base formulation III., 1.5 wt % component (a), 3 d): 98
- amylase activity, referring to reference formulation at time 0 (Amy2=Amplify; base formulation III., 1.5 wt % component (a), 7 d): 95
- amylase activity, referring to reference formulation at time 0 (Amy2=Amplify; base formulation III., 1.5 wt % component (a), 14 d): 91
- amylase activity, referring to reference formulation at time 0 (Amy2=Amplify; base formulation III., 1.5 wt % component (a), 21 d): 86
- amylase activity, referring to reference formulation at time 0 (Amy2=Amplify; base formulation III., 1.5 wt % component (a), 28 d): 78
- amylase activity, referring to reference formulation at time 0 (Amy2=Amplify; base formulation III., 1.5 wt % component (a), 42 d): 68
- amylase activity, referring to reference formulation at time 0 (Amy2=Amplify; base formulation III., 1.5 wt % component (a), T0): 100
- amylase activity, referring to reference formulation at time 0 (Amy2=Amplify; base formulation V., 2.0 wt % component (a), 3 d): 96
- amylase activity, referring to reference formulation at time 0 (Amy2=Amplify; base formulation V., 2.0 wt % component (a), 7 d): 91
- amylase activity, referring to reference formulation at time 0 (Amy2=Amplify; base formulation V., 2.0 wt % component (a), 14 d): 87
- amylase activity, referring to reference formulation at time 0 (Amy2=Amplify; base formulation V., 2.0 wt % component (a), 21 d): 80
- amylase activity, referring to reference formulation at time 0 (Amy2=Amplify; base formulation V., 2.0 wt % component (a), 28 d): 73
- amylase activity, referring to reference formulation at time 0 (Amy2=Amplify; base formulation V., 2.0 wt % component (a), 42 d): 62
- amylase activity, referring to reference formulation at time 0 (Amy2=Amplify; base formulation V., 2.0 wt % component (a), T0): 98
- amylase activity, referring to reference formulation at time 0 (Amylase; laundry base formulation IX. (2.5 DTPA), 3 d): 98
- amylase activity, referring to reference formulation at time 0 (Amylase; laundry base formulation IX. (2.5 DTPA), 7 d): 90
- amylase activity, referring to reference formulation at time 0 (Amylase; laundry base formulation IX. (2.5 DTPA), 14 d): 85
- amylase activity, referring to reference formulation at time 0 (Amylase; laundry base formulation IX. (2.5 DTPA), 21 d): 78
- amylase activity, referring to reference formulation at time 0 (Amylase; laundry base formulation IX. (2.5 DTPA), 28 d): 70
- amylase activity, referring to reference formulation at time 0 (Amylase; laundry base formulation IX. (2.5 DTPA), T0): 99
- amylase activity, referring to reference formulation at time 0 (Amylase; laundry base formulation VI. (2.0 EDTA), 3 d): 98
- amylase activity, referring to reference formulation at time 0 (Amylase; laundry base formulation VI. (2.0 EDTA), 7 d): 91
- amylase activity, referring to reference formulation at time 0 (Amylase; laundry base formulation VI. (2.0 EDTA), 14 d): 86
- amylase activity, referring to reference formulation at time 0 (Amylase; laundry base formulation VI. (2.0 EDTA), 21 d): 81
- amylase activity, referring to reference formulation at time 0 (Amylase; laundry base formulation VI. (2.0 EDTA), 28 d): 73
- amylase activity, referring to reference formulation at time 0 (Amylase; laundry base formulation VI. (2.0 EDTA), T0): 100
- amylase activity, referring to reference formulation at time 0 (Amylase; laundry base formulation VII. (2.0 EDTA), 3 d): 95
- amylase activity, referring to reference formulation at time 0 (Amylase; laundry base formulation VII. (2.0 EDTA), 7 d): 88
- amylase activity, referring to reference formulation at time 0 (Amylase; laundry base formulation VII. (2.0 EDTA), 14 d): 79
- amylase activity, referring to reference formulation at time 0 (Amylase; laundry base formulation VII. (2.0 EDTA), 21 d): 73
- amylase activity, referring to reference formulation at time 0 (Amylase; laundry base formulation VII. (2.0 EDTA), 28 d): 68
- amylase activity, referring to reference formulation at time 0 (Amylase; laundry base formulation VII. (2.0 EDTA), T0): 100
- amylase activity, referring to reference formulation at time 0 (Amylase; laundry base formulation VIII. (2.5 DTPA, no Savinase), 3 d): 98
- amylase activity, referring to reference formulation at time 0 (Amylase; laundry base formulation VIII. (2.5 DTPA, no Savinase), 7 d): 93
- amylase activity, referring to reference formulation at time 0 (Amylase; laundry base formulation VIII. (2.5 DTPA, no Savinase), 14 d): 88
- amylase activity, referring to reference formulation at time 0 (Amylase; laundry base formulation VIII. (2.5 DTPA, no Savinase), 21 d): 83
- amylase activity, referring to reference formulation at time 0 (Amylase; laundry base formulation VIII. (2.5 DTPA, no Savinase), 28 d): 75
- amylase activity, referring to reference formulation at time 0 (Amylase; laundry base formulation VIII. (2.5 DTPA, no Savinase), T0): 100
